Strand notation (5' to 3'): a small letter for the sugar, then the base; units joined by * are phosphorothioate-linked, units joined directly phosphodiester-linked; [ ] holds rarer units or linkages, { } end groups; capitals alone tell only the bases. [PAM-N] = nucleoside carrying a 2'-(butylacetamido)-palmitamide group (palmitic acid C16 conjugate) (N: the base); e = 2'-O-(2-methoxyethyl) (MOE); [5mC] = 5-methylcytosine; d = 2'-deoxy (DNA)
Key:
ApoB mRNA = ApoB mRNA in liver and estimated ED50, compounds comprising palmitic acid conjugates (Table 95); format: in vivo, mouse; conditions: ApoB mRNA in liver, Balb/c mice, relative to saline
Method: 0.4, and 0.16 umol/kg. Each dose group consisted of four animals. A 5-10-5 MOE gapmer was used for a control treatment. Mice were sacrificed approximately 48 hours following the final dose. Liver tissue was collected for RNA isolation, and blood was collected for serum chemistry analyses. ApoB mRNA levels were measured by real-time PCR as described herein. ApoB mRNA levels were normalized to RNA levels as determined by RIBOGREEN, and are presented in Table 95 as percent inhibition relative to ApoB mRNA levels in saline-treated control animals.
At the 2.5 umol/kg dose, ApoB inhibition by the short antisense compounds was greater than observed with a 5-10-5 MOE gapmer at an equivalent dose. […] Triglycerides were reduced at the 2.5 and […] doses of ISIS 387462 and ISIS 391872.

rat SGLT2 mRNA [1] = assay: Rat SGLT2 mRNA in kidney, 1-10-1 and 1-10-2 MOE gapmers, Sprague-Dawley rats (Table 63); format: in vivo
Text: 1-10-1 and 1-10-2 MOE gapmer antisense compounds, provided in Table 62, were designed to target different regions of the mouse or rat SGLT2 RNA. All short antisense compounds in Table 62 are chimeric oligonucleotides (“gapmers”) either 12 or 13 nucleotides in length, composed of a central “gap” segment consisting of ten 2′-deoxynucleotides, which are flanked on the 5′ side by a one-nucleoside “wing” and on the 3′ side by a two or one-nucleotide “wing”. […] All cytidine residues are 5-methylcytidines.
The short antisense compounds were analyzed for their effect on rat SGLT2 mRNA levels. Data are ranges taken from three experiments in which Male Sprague-Dawley rats (170-200 g) were dosed twice per week for three weeks with 450, 150 or 50 nmol/kg of either a 1-10-1 or 1-10-2 MOE gapmer given by intraperitoneal injection. Rats were sacrificed 48 hours following last administration and evaluated for SGLT2 mRNA levels in kidney. Target levels were determined by RT, real-time PCR as described by other examples herein. PCR results were normalized to an internal ISIS control.

mouse SGLT2 mRNA [2] = assay: Mouse SGLT2 mRNA in kidney, additional 1-10-1 and 2-8-2 MOE gapmers (Table 68); format: in vivo; conditions: Balb/c mouse kidney
Method: 1-10-1 and 2-8-2 MOE gapmer short antisense compounds were designed to target different regions of the mouse SGLT2 RNA but have complementarity across species. […] All cytidine residues are 5-methylcytidines.
The short antisense compounds were analyzed for their effect on mouse SGLT2 mRNA levels in vivo. Data was taken from three experiments in which male 6-week old Balb/c mice were dosed twice per week for three weeks with 0.5, 0.1, or 0.02 umol/kg of either a 1-10-1 or 2-8-2 MOE gapmer given by intraperitoneal injection. Mice were sacrificed 48 hours following last administration and evaluated for SGLT2 levels in kidney. Target levels were determined by RT, real-time PCR as described by other examples herein. PCR results were normalized to an internal ISIS control.

rat SGLT2 mRNA [3] = assay: Rat SGLT2 mRNA in kidney, 1-10-1 and 2-8-2 MOE gapmer (Table 70); format: in vivo; conditions: Sprague-Dawley rat kidney
Method: The effect of ISIS 3796921-10-1 MOE gapmer and ISIS 388625 MOE 2-8-2 gapmer (see Table 70) on rat SGLT2 mRNA levels in vivo. […] Rats were sacrificed 48 hours following last administration and evaluated for SGLT2 levels in kidney. Target levels were determined by RT, real-time PCR as described by other examples herein. PCR results were normalized to an internal ISIS control.

mouse SGLT2 mRNA [4] = assay: Mouse SGLT2 mRNA in kidney, MOE versus Methyleneoxy BNA gapmers (Table 69); format: in vivo; conditions: Balb/c mouse kidney
Method: The effect of ISIS 3796921-10-1 MOE gapmer and ISIS 3886252-8-2 MOE gapmer are compared with the effect of ISIS 3921701-10-1 Methyleneoxy BNA Gapmer and ISIS 3921732-8-2 Methyleneoxy BNA Gapmer (see Table 69) on mouse SGLT2 mRNA levels in vivo. Data are taken from three experiments in which male 6-week old Balb/c mice were dosed twice per week for three weeks with 5, 25 and 125 nmol/kg of either the ISIS 3796921-10-1 MOE gapmer or the ISIS 3886252-8-2 MOE gapmer given by intraperitoneal injection. Mice were sacrificed 48 hours following last administration and evaluated for SGLT2 mRNA levels in kidney. Target levels were determined by RT, real-time PCR as described by other examples herein. PCR results were normalized to an internal ISIS control. The data are expressed as percent change (“+” indicates an increase, “−” indicates a decrease) relative to saline treated animals and are illustrated in Table 69.

rat SGLT2 mRNA [5] = assay: Rat SGLT2 mRNA in kidney, 1-10-1 gapmers, 250 nmol/kg (Table 66); format: in vivo; conditions: 250 nmol/kg i.p. twice per week for three weeks, Sprague-Dawley rat kidney
Method: The effect of the above 1-10-1 gapmers (see Table 64 above) on rat SGLT2 mRNA levels. Data are taken from four experiments in which male Sprague-Dawley rats (170-200 g) were dosed twice per week for three weeks with 250 nmol/kg given by intraperitoneal injection. Rats were sacrificed 48 hours following last administration and evaluated for SGLT2 mRNA levels in kidney. Target levels were determined by RT, real-time PCR as described by other examples herein. PCR results were normalized to an internal ISIS control.

mouse SGLT2 mRNA [6] = assay: Mouse SGLT2 mRNA in kidney, 1-10-1 MOE gapmers, Balb/c mice (Table 65); format: in vivo
Method: The short antisense compounds were analyzed for their effect on mouse SGLT2 mRNA levels. Data was taken from three experiments in which Male 6-week old Balb/c mice were dosed twice per week for two weeks with 450, 150, or 50 nmol/kg of one of the above 1-10-1 MOE gapmers given by intraperitoneal injection. Mice were sacrificed 48 hours following last administration and evaluated for SGLT2 mRNA levels in kidney. Target levels were determined by RT, real-time PCR as described by other examples herein. PCR results were normalized to an internal ISIS control.

[7] = HbA1c status in ZDF rat (Table 72); format: in vivo; conditions: for Percentage HbA1c: ZDF rat, 400 nM/kg i.p. once a week
Method: (§1) ISIS 388625, 388626 and control oligo ISIS 388628 were analyzed for their effect on ZDF rat plasma glucose levels and HbA1c. The leptin receptor deficient Zucker diabetic fatty (ZDF) rat is a useful model for the investigation of type 2 diabetes. Diabetes develops spontaneously in these male rats at ages 8-10 weeks, and is associated with hyperphagia, polyuria, polydipsia, and impaired weight gain, symptoms which parallel the clinical symptoms of diabetes (Phillips M S, et al., 1996, Nat Genet. 13, 18-19). Six week old ZDF rats were injected intraperitoneally with short antisense compound at a dose of 400 nM/kg once a week for twelve weeks. Data are illustrated in Tables 71 and 72.

[8] = Plasma glucose in ZDF rat (Table 71); format: in vivo
Method: as §1

[9] = 0.02 umol/kg i.p. twice per week for three weeks
[10] = 0.1 umol/kg i.p. twice per week for three weeks
[11] = 0.5 umol/kg i.p. twice per week for three weeks
[12] = ZDF rats, 400 nM/kg i.p. once a week for twelve weeks, compared to PBS and control

391871 ([PAM-G]*eG*dT*dA*dC*dA*dT*dG*dG*dA*dA*dG*eT*e[5mC]) [compound 391871]
% Inhib (ApoB mRNA; single i.p. injection 0.16 umol/kg): 0% | % Inhib (ApoB mRNA; single i.p. injection 0.4 umol/kg): 5% | % Inhib (ApoB mRNA; single i.p. injection 1.0 umol/kg): 18%

ISIS 379692: 1-10-1 MOE gapmer, SGLT2 (eT*dG*dT*dT*d[5mC]*d[5mC]*dA*dG*d[5mC]*d[5mC]*d[5mC]*eA)
% change in SGLT2 expression relative to saline (rat SGLT2 mRNA [1]; 50 nmol/kg i.p. twice per week for three weeks): −80% | % change in SGLT2 expression relative to saline (rat SGLT2 mRNA [1]; 150 nmol/kg i.p. twice per week for three weeks): −85% | % change in SGLT2 expression relative to saline (rat SGLT2 mRNA [1]; 450 nmol/kg i.p. twice per week for three weeks): −90% | % change in SGLT2 expression relative to saline (mouse SGLT2 mRNA [2]; [9]): −55% | % change in SGLT2 expression relative to saline (mouse SGLT2 mRNA [2]; [10]): −75% | % change in SGLT2 expression relative to saline (mouse SGLT2 mRNA [2]; [11]): −85% | % change in SGLT2 expression relative to saline (rat SGLT2 mRNA [3]; dose 3.125 umol/kg [sic] i.p. twice per week for three weeks): +30% | % change in SGLT2 expression relative to saline (rat SGLT2 mRNA [3]; dose 12.5 umol/kg [sic] i.p. twice per week for three weeks): −15% | % change in SGLT2 expression relative to saline (rat SGLT2 mRNA [3]; dose 50 umol/kg [sic] i.p. twice per week for three weeks): −65% | % change in SGLT2 expression relative to saline (rat SGLT2 mRNA [3]; dose 200 umol/kg [sic] i.p. twice per week for three weeks): −80% | SGLT2 mRNA, percent change relative to saline treated animals (mouse SGLT2 mRNA [4]; 5 nmol/kg i.p. twice per week for three weeks): −7% | SGLT2 mRNA, percent change relative to saline treated animals (mouse SGLT2 mRNA [4]; 25 nmol/kg i.p. twice per week for three weeks): −46% | SGLT2 mRNA, percent change relative to saline treated animals (mouse SGLT2 mRNA [4]; 125 nmol/kg i.p. twice per week for three weeks): −58% | % change in SGLT2 expression relative to saline (rat SGLT2 mRNA [5]): −85% | % change in SGLT2 expression relative to saline (mouse SGLT2 mRNA [6]; 50 nmol/kg i.p. twice per week for two weeks): −52.5% | % change in SGLT2 expression relative to saline (mouse SGLT2 mRNA [6]; 150 nmol/kg i.p. twice per week for two weeks): −70% | % change in SGLT2 expression relative to saline (mouse SGLT2 mRNA [6]; 450 nmol/kg i.p. twice per week for two weeks): −80%

ISIS 388626: GGCATGAGCTTC 2-8-2 MOE, SGLT2 (eG*eG*d[5mC]*dA*dT*dG*dA*dG*d[5mC]*dT*eT*e[5mC])
% change in SGLT2 expression relative to saline (mouse SGLT2 mRNA [2]; [9]): −45% | % change in SGLT2 expression relative to saline (mouse SGLT2 mRNA [2]; [10]): −60% | % change in SGLT2 expression relative to saline (mouse SGLT2 mRNA [2]; [11]): −80% | HbA1C [7, 12]: significantly reduced | Plasma glucose levels [8, 12]: significantly reduced

388626 (eG*eG*d[5mC]*dA*dT*dG*dA*dG*d[5mC]*dT*eT*e[5mC]) [compound 388626]
Percentage HbA1c ([7]; Day 40): 6.6% | Percentage HbA1c ([7]; Day 55): 5.9% | Percentage HbA1c ([7]; Day 68): 4.0% | Plasma glucose levels ([8]; Day 10, ZDF rat, 400 nM/kg i.p. once a week): 434.7 mg/dL | Plasma glucose levels ([8]; Day 40, ZDF rat, 400 nM/kg i.p. once a week): 300.5 mg/dL | Plasma glucose levels ([8]; Day 55, ZDF rat, 400 nM/kg i.p. once a week): 219.8 mg/dL | Plasma glucose levels ([8]; Day 66, ZDF rat, 400 nM/kg i.p. once a week): 379.8 mg/dL

— US8372967B2, “Compounds and methods for modulating expression of GCCR” (Isis Pharmaceuticals, Inc., priority 2006, dated 2013)
